Where a name gives a salt, the structure may show the parent alone. Read-outs that look alike come from different tables or passages of the source.
Experiments:
[1] = Absorption kinetic after oral administration: plasma concentration of BTG 1640; assay type: in vivo, rats Sprague Dawley; conditions: rat
Experimental: Absorption extent and rate of molecule BTG 1640 in its forms of oxalate and hydrochloride salts were evaluated.
With this intent, the two salts were dispersed in an aqueous suspension of arabic gum at 5% thus obtaining two formulations, each one orally administered through oesophageous gavage at dose of 10 mg/kg (expressed as free base of BTG 1640) to five rats Sprague Dawley.
Plasma concentration of molecule BTG 1640 was determined at different time points (see Table 7).

[2] = Stability test of BTG 1640 salts under storage conditions: purity; assay type: physicochemical; conditions: for Purity %: time 0 (months)
Experimental: Samples of 100 mg each of BTG 1640 hydrochloride were subjected to the following preservation conditions:
The purities were then analyzed periodically, initially every three months, in order to underline possible variations.
Samples of 100 mg each of BTG 1640 oxalate prepared according to example 1B were subjected to the following preservation conditions:
Quarterly and in an overall period of nine months its purity was then analyzed in order to point out possible variations.
The stabilities were then evaluated by subjecting samples of 100 mg of each salt to the following analogous preservation conditions:
Quarterly and in an overall period of nine months their purity was then analyzed in order to underline possible variations.

[3] = Stability test of BTG 1640 salts under storage conditions: total impurities; assay type: physicochemical; conditions: for Impurity profile (in words): condition d): 40° C./75% RH
Experimental: Contemporaneously, the impurity analysis in the conditions a)-d) of T/% RH were carried out.
As a confirmation of such evidence, a test for the evaluation of the impurity percentage of the sample subjected to the same conditions a)-d) of T/% RH was parallely carried out. The experimental values in Table 4 were obtained.

female CD-1 mice = assay: Acute oral toxicity; assay type: in vivo; conditions: for Clinical signs / Histopathological examination of kidneys: female CD-1 mice
Experimental: Acute oral toxicity of salts hydrochloride and oxalate of BTG-1640 was evaluated.
The two salts were dispersed in an aqueous suspension, thus obtaining two formulations, each one orally administered through oesophageous gavage at dose of 2000 mg/kg bw (expressed as free base of BTG 1640) to one of two groups comprising three female CD-1 mice per group.
The observation lasted 14 days.

[4] = condition d): 40° C./75% RH, up to six months
[5] = T = 25° C., humidity 60% RH, time 0 (months)
[6] = T = 30° C., humidity 65% RH, time 0 (months)
[7] = T = 40° C., humidity 75% RH, time 0 (months)
[8] = 2000 mg/kg bw oral (as free base)
[9] = Sprague Dawley, in vivo, po, 10 mg/kg

SMILES | Stability (in words) [2, 4] | % impurities ([3]; T = 5° C., time 0 (months)) [%] | % impurities [3, 5] [%] | % impurities [3, 6] [%] | % impurities [3, 7] [%] | Impurity profile (in words) [3] | Clinical signs (female CD-1 mice; [8]) | Histopathological examination of kidneys (female CD-1 mice; [8]) | Stability compared with BTG 1640 hydrochloride (in words) ([2]; conditions a)-d)) | also measured
CN1OC2CCCC(=O)C2C1Cc1ccccc1.Cl (stereo not drawn) [BTG 1640 hydrochloride, reference compound] | strong instability | 0.36 | 0.36 | 0.36 | 0.36 | unacceptable percentage of impurities | Lethargy, ataxia, aggressiveness and vocalization | small foci of acute tubular necrosis in the cortex, balloon degeneration of the epithelium and dilatation of convoluted tubules |  | BTG 1640 free base concentration in plasma ([1]; oral gavage 10 mg/kg (as free base), 5% arabic gum suspension, 300 minutes): 0 µg/mL; Stability (in words) ([2]; conditions a)-c): 5° C., 25° C./60% RH, 30° C./65% RH, 12 months): good stability; Validity time period ([2]; indicated on the basis of the stability results, preserved at 2-8° C.): 12 months; Lethality (female CD-1 mice; 2000 mg/kg bw oral (as free base), three female CD-1 mice, 14 days observation): lethal in two animals out of three
CN1OC2CCCC(=O)C2C1Cc1ccccc1 [BTG 1640 oxalate, oxalate salt of rel-(3R,3aS,7aS)-3-benzyl-2-methyl-2,3,3a,4,5,6,7,7a-octahydrobenzo[d]isoxazol-4-one] |  | 0.27 | 0.27 | 0.27 | 0.27 | invariable impurity profile | quickly reversible neurological signs | focal and moderate balloon degeneration of the epithelium in convoluted tubules |  | concentration at 2 minutes [1, 9]: 2050 ng/mL; concentration at 5 minutes [1, 9]: 1870 ng/mL; concentration at 30 minutes [1, 9]: 390 ng/mL; concentration at 300 minutes [1, 9]: 0 ng/mL; Absorption compared with hydrochloride (in words) ([1]; in vivo, po, 10 mg/kg): higher absorption; Stability compared with BTG 1640 hydrochloride (in words) [2]: higher stability; Purity % ([2]; T = 5° C.): 99.7%; Purity % ([2]; T = 25° C., humidity 60% RH): 99.7%; Purity % ([2]; T = 30° C., humidity 65% RH): 99.7%; Purity % ([2]; T = 40° C., humidity 75% RH): 99.7%; % impurities ([3]; T = 5° C., time 3 (months)): 0.33%; % impurities ([3]; T = 5° C., time 9 (months)): 0.29%; % impurities ([3]; T = 25° C., humidity 60% RH, time 3 (months)): 0.30%; % impurities ([3]; T = 30° C., humidity 65% RH, time 3 (months)): 0.28%; Toxicity compared with hydrochloride (in words) (female CD-1 mice; 2000 mg/kg bw oral, female mice): less toxic
CN1OC2CCCC(=O)C2C1Cc1ccccc1.O=C(O)/C=C\C(=O)O (stereo not drawn) [BTG 1640 maleate] | degrades in unacceptable way |  | 0.23 | 0.23 |  |  |  |  | even worse | Stability (in words) ([2]; condition c) 30° C./65% RH, at sixth month): considerable degradation; Stability (in words) ([2]; conditions a) and b)): acceptable profile
CN1OC2CCCC(=O)C2C1Cc1ccccc1.CS(=O)(=O)O (stereo not drawn) [BTG 1640 methanesulphonate] |  |  | 0.42 | 0.42 |  |  |  |  | even worse | Stability (in words) ([2]; conditions b)-d)): begins to degrade already after three months
CN1OC2CCCC(=O)C2C1Cc1ccccc1.O=C(O)CCC(=O)O (stereo not drawn) [BTG 1640 succinate] |  |  | 0.77 | 0.77 |  |  |  |  | even worse | Stability (in words) ([2]; all observation conditions a)-d), from the third month): shows degradation
